The text below walks through data of ChEMBL document CHEMBL1153316, “Selectivity profiling of DegP substrates and inhibitors” (Bioorg Med Chem, 2009).

Peptide text beside a SMILES is read from it. A value given as a limit tells only on which side of the number the result lay.

Experiment [1] can be described thus: Inhibition of kallikrein assessed as specific activity at 0.5 mM. On the set-up: scale not given: the % may be the effect or the level left.
A short description of experiment [2]: Inhibition of subtilisin assessed as specific activity at 0.5 mM. More on the design: scale not given: the % may be the effect or the level left.
Experiment [3] in a line: Inhibition of trypsin assessed as specific activity at 0.5 mM. On the set-up: scale not given: the % may be the effect or the level left.
For experiment [4], the system named is Escherichia coli. Description: Inhibition of Escherichia coli degP assessed as specific activity at 0.5 mM. More on the design: scale not given: the % may be the effect or the level left.
The nature of experiment [5]: Inhibition of elastase assessed as specific activity at 0.5 mM. More on the design: scale not given: the % may be the effect or the level left.
Experiment [6] deals with Plasminogen (Homo sapiens) (UniProt P00747). Description: Inhibition of plasmin assessed as specific activity at 0.5 mM. More on the design: scale not given: the % may be the effect or the level left.
The nature of experiment [7]: Inhibition of chymotrypsin assessed as specific activity at 0.5 mM. On the set-up: scale not given: the % may be the effect or the level left.
Experiment [8] concerns the target Prothrombin (Homo sapiens) (UniProt P00734). The experiment is described as follows: Inhibition of thrombin assessed as specific activity at 0.5 mM. More on the design: scale not given: the % may be the effect or the level left.
A short description of experiment [9]: Inhibition of elastase assessed as residual proteolytic activity at 0.5 mM.
Experiment [10] concerns the target Plasminogen (Homo sapiens) (UniProt P00747). Description: Inhibition of plasmin assessed as residual proteolytic activity at 0.5 mM.
Experiment [11] is described as follows: Inhibition of kallikrein assessed as residual proteolytic activity at 0.5 mM.
Experiment [12] is described as follows: Inhibition of trypsin assessed as residual proteolytic activity at 0.5 mM.
Experiment [13] is described as follows: Inhibition of subtilisin assessed as residual proteolytic activity at 0.5 mM.
Experiment [14] is described as follows: Inhibition of chymotrypsin assessed as residual proteolytic activity at 0.5 mM.
Experiment [15] deals with Prothrombin (Homo sapiens) (UniProt P00734). The experiment is described as follows: Inhibition of thrombin assessed as residual proteolytic activity at 0.5 mM.
The subject of experiment [16] is Escherichia coli. Description: Inhibition of Escherichia coli degP assessed as residual proteolytic activity at 0.5 mM.

Sequence of Plasminogen (Homo sapiens) (P00747 97-580 limits assumed): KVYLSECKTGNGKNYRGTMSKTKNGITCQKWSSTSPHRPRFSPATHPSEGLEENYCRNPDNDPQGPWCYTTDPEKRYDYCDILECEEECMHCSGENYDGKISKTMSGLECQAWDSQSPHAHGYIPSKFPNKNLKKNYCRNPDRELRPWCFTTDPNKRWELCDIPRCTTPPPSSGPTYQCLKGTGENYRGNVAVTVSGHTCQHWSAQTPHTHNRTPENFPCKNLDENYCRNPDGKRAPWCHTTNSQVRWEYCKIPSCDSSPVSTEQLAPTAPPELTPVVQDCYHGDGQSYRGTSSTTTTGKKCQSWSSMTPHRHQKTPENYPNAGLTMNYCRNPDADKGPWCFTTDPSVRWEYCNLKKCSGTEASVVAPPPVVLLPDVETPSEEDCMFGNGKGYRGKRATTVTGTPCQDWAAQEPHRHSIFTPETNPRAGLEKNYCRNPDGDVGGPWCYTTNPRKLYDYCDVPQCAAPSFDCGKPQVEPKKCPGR
Sequence of Plasminogen (Homo sapiens) (P00747 581-810 limits assumed): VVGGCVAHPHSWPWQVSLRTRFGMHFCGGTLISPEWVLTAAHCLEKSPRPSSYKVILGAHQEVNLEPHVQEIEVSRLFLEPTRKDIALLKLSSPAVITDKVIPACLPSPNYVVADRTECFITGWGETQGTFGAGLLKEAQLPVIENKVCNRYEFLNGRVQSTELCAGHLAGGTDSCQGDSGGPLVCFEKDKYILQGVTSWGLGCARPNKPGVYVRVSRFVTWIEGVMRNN

As for `CC(C)C[C@H](NC(=O)CN)C(=O)N[C@@H](C)C(=O)N[C@H](C(=O)NCC(=O)N[C@@H](CC(N)=O)C(=O)N[C@H](C(=O)N[C@@H](CO)C(=O)N[C@H](C(=O)N[C@@H](C)C(=O)N[C@@H](CCC(=O)O)C(=O)N[C@@H](CC(C)C)C(=O)N[C@@H](CCC(N)=O)C(=O)N[C@@H](CC(=O)O)C(=O)N[C@@H](C)C(=O)N[C@H](C(=O)N1CCC[C@H]1C(=O)N[C@@H](C)C(=O)Nc1ccc([N+](=O)[O-])cc1)[C@H](C)O)[C@@H](C)O)C(C)C)[C@@H](C)O`, the Activity in experiment [1] was less than 1%; in experiment [2], 1520%; in experiment [3] it was less than 1%; in the experiment on Escherichia coli [4], less than 1%; in [5], 24%; in experiment [6], less than 1%. Also, the Activity in experiment [7] was 26%; in experiment [8], less than 1%.
Consider `CC(C)[C@H](NC(=O)[C@H](CCC(=O)O)NC(=O)[C@H](Cc1ccc(O)cc1)NC(=O)CNC(=O)[C@H](CO)NC(=O)[C@H](CC(=O)O)NC(=O)[C@H](Cc1cnc[nH]1)NC(=O)[C@H](CCCNC(=N)N)NC(=O)[C@H](Cc1ccccc1)NC(=O)[C@H](CCC(=O)O)NC(=O)[C@H](C)NC(=O)[C@H](CC(=O)O)NC(=O)[C@@H](N)CO)C(=O)Nc1ccc([N+](=O)[O-])cc1`, for which the Activity in experiment [1] is less than 1%; in experiment [2], 2%; in [3] it was less than 1%; in the experiment on Escherichia coli [4], less than 1%; in experiment [5], 8%; in [6], less than 1%. Further, the Activity in [7] and in experiment [8] was less than 1% throughout.
For `CSCC[C@H](NC(=O)[C@H](CCSC)NC(=O)[C@@H]1CCCN1C(=O)[C@H](CC(C)C)NC(=O)[C@@H](NC(=O)[C@H](CC(N)=O)NC(=O)[C@H](Cc1ccccc1)NC(=O)[C@@H](NC(=O)[C@@H]1CCCN1)C(C)C)[C@H](C)O)C(=O)NCC(=O)N[C@@H](CCCCN)C(=O)N[C@@H](C)C(=O)N[C@@H](CO)C(=O)N1CCC[C@H]1C(=O)N[C@H](C(=O)Nc1ccc([N+](=O)[O-])cc1)C(C)C`, the Activity in experiment [1] is less than 1%; in experiment [2], less than 1%; in experiment [3] it was 1%; in the experiment with Escherichia coli [4] it was 18%; in experiment [5], 69%; in experiment [6], less than 1%. Besides, the Activity in experiment [7] is 3%; in experiment [8] it was less than 1%.
For `N=C(N)NCCC[C@H](NC(=O)c1ccccc1)C(=O)Nc1ccc([N+](=O)[O-])cc1`, the Activity is 24% in experiment [1]; less than 1% in experiment [2]; 758% in [3]; less than 1% with Escherichia coli [4]; less than 1% in experiment [5]; less than 1% in experiment [6]. Further, the Activity is less than 1% in experiment [7] and 3% in experiment [8].
For `CC[C@H](C)[C@H](N)C(=O)N[C@@H](Cc1c[nH]c2ccccc12)C(=O)N[C@@H](CC(N)=O)C(=O)N[C@H](C(=O)N[C@@H](CC(C)C)C(=O)N[C@@H](CC(N)=O)C(=O)N[C@@H](CO)C(=O)NCC(=O)N[C@@H](CCCNC(=N)N)C(=O)N[C@H](C(=O)N[C@H](C(=O)N1CCC[C@H]1C(=O)NCC(=O)N[C@H](C(=O)NCC(=O)N[C@@H](Cc1cnc[nH]1)C(=O)N[C@@H](C)C(=O)CCl)[C@@H](C)O)C(C)C)C(C)C)[C@@H](C)O` (HELM PEPTIDE1{I.W.N.T.L.N.S.G.R.V.V.P.G.T.G.H.A.[ClC[*:1]]}$$$$V2.0), the Activity in [9] stood at 60%; in [10] it was 74%; in experiment [11] it was 111%; in experiment [12], 410%; in experiment [13], 15%; in [14] it was 78%. For the same molecule, the values for the Activity (in [15]; with Escherichia coli [16]) were 98% and 101%, respectively.
For the molecule `CC(C)C[C@H](NC(=O)CNC(=O)[C@H](C)NC(=O)CNC(=O)[C@@H]1CCCN1C(=O)[C@@H](NC(=O)[C@H](CO)NC(=O)[C@H](C)NC(=O)CNC(=O)[C@@H](N)CCCCN)C(C)C)C(=O)N[C@H](C(=O)Nc1ccc([N+](=O)[O-])cc1)C(C)C` (HELM PEPTIDE1{K.G.A.S.V.P.G.A.G.L.V.[O=[N+]([O-])c1ccc(N[*:1])cc1]}$$$$V2.0), the Activity in experiment [1] is less than 1%; in [2], less than 1%; in experiment [3], less than 1%; with Escherichia coli [4] it was less than 1%; in experiment [5], 6%; in [6] it was less than 1%. The Activity in [7] and in experiment [8] was less than 1% in each case.
For the molecule `CC(C)[C@H](NC(=O)[C@@H]1CCCN1C(=O)[C@@H](NC(=O)[C@H](C)NC(=O)CNC(=O)[C@H](CO)NC(=O)CNC(=O)[C@H](CO)NC(=O)[C@H](CC(N)=O)NC(=O)[C@H](CCCCN)NC(=O)CNC(=O)[C@@H](N)CCCCN)[C@@H](C)O)C(=O)Nc1ccc([N+](=O)[O-])cc1` (HELM PEPTIDE1{K.G.K.N.S.G.S.G.A.T.P.V.[O=[N+]([O-])c1ccc(N[*:1])cc1]}$$$$V2.0), the Activity in experiment [1] is less than 1%; in experiment [2], 34%; in [3] it was less than 1%; in the experiment on Escherichia coli [4], less than 1%; in experiment [5], 74%; in [6] it was less than 1%. In addition, the Activity in experiment [7] was 5%; in experiment [8] it was less than 1%.
Turning to `CSCC[C@H](NC(=O)[C@H](CCSC)NC(=O)[C@@H]1CCCN1)C(=O)NCC(=O)N[C@@H](CCCCN)C(=O)N[C@@H](C)C(=O)N[C@@H](CO)C(=O)N1CCC[C@H]1C(=O)N[C@H](C(=O)CCl)C(C)C` (HELM PEPTIDE1{P.M.M.G.K.A.S.P.V.[ClC[*:1]]}$$$$V2.0), the Activity in [9] was less than 1%; in [10], 71%; in [11] it was 108%; in [12] it was 348%; in experiment [13], 5%; in [14], 53%. The results for the Activity (in experiment [15]; in the experiment with Escherichia coli [16]) were 122% and 49%, respectively.
In the case of `CSCC[C@H](NC(=O)[C@H](CCSC)NC(=O)[C@@H]1CCCN1)C(=O)NCC(=O)N[C@@H](CCCCN)C(=O)N[C@@H](C)C(=O)N[C@@H](CO)C(=O)N1CCC[C@H]1C(=O)N[C@H](C(=O)Nc1ccc([N+](=O)[O-])cc1)C(C)C` (HELM PEPTIDE1{P.M.M.G.K.A.S.P.V.[O=[N+]([O-])c1ccc(N[*:1])cc1]}$$$$V2.0), the Activity in experiment [1] was less than 1%; in [2], less than 1%; in experiment [3] it was less than 1%; in the experiment on Escherichia coli [4], 1%; in [5] it was 96%; in [6], 4%. The Activity in experiment [7] and in experiment [8] was less than 1% throughout.
Take `CC(C)[C@H](NC(=O)[C@H](CCCNC(=N)N)NC(=O)CNC(=O)[C@@H](N)CO)C(=O)N[C@H](C(=O)N1CCC[C@H]1C(=O)NCC(=O)N[C@@H](Cc1ccc(O)cc1)C(=O)NCC(=O)N[C@@H](Cc1cnc[nH]1)C(=O)N[C@@H](C)C(=O)Nc1ccc([N+](=O)[O-])cc1)C(C)C` (HELM PEPTIDE1{S.G.R.V.V.P.G.Y.G.H.A.[O=[N+]([O-])c1ccc(N[*:1])cc1]}$$$$V2.0): the Activity in experiment [1] was less than 1%; in [2] it was 2970%; in experiment [3], less than 1%; in the experiment with Escherichia coli [4], less than 1%; in experiment [5], 56%; in experiment [6], less than 1%. Further, the Activity in [7] and in experiment [8] was less than 1% throughout.
On to `CSCC[C@H](NC(=O)[C@@H]1CCCN1C(=O)[C@@H](N)CO)C(=O)N[C@@H](Cc1ccccc1)C(=O)N[C@@H](CCCCN)C(=O)NCC(=O)N[C@H](C(=O)Nc1ccc([N+](=O)[O-])cc1)C(C)C` (HELM PEPTIDE1{S.P.M.F.K.G.V.[O=[N+]([O-])c1ccc(N[*:1])cc1]}$$$$V2.0), for which the Activity is less than 1% in experiment [1]; 3% in experiment [2]; less than 1% in [3]; 18% with Escherichia coli [4]; 7% in experiment [5]; less than 1% in experiment [6]. Also, the Activity in [7] and in experiment [8] was less than 1% in each case.
`CC(C)[C@H](NC(=O)CNC(=O)CNC(=O)[C@H](CC(=O)O)NC(=O)[C@@H](NC(=O)[C@@H](N)CO)[C@@H](C)O)C(=O)Nc1ccc([N+](=O)[O-])cc1` (HELM PEPTIDE1{S.T.D.G.G.V.[O=[N+]([O-])c1ccc(N[*:1])cc1]}$$$$V2.0): the Activity was less than 1% in [1]; less than 1% in experiment [2]; less than 1% in [3]; less than 1% in the experiment with Escherichia coli [4]; 5% in [5]; 2% in experiment [6]. The Activity in [7] and in experiment [8] was less than 1% each time.
As for `CSCC[C@H](NC(=O)[C@H](CCSC)NC(=O)[C@@H]1CCCN1C(=O)[C@H](CC(C)C)NC(=O)[C@@H](NC(=O)[C@H](CC(N)=O)NC(=O)[C@H](Cc1ccccc1)NC(=O)[C@@H](N)C(C)C)[C@@H](C)O)C(=O)NCC(=O)N[C@@H](CCCCN)C(=O)N[C@@H](C)C(=O)N[C@@H](CO)C(=O)N1CCC[C@H]1C(=O)N[C@H](C(=O)Nc1ccc([N+](=O)[O-])cc1)C(C)C` (HELM PEPTIDE1{V.F.N.T.L.P.M.M.G.K.A.S.P.V.[O=[N+]([O-])c1ccc(N[*:1])cc1]}$$$$V2.0), the Activity in [1] was less than 1%; in experiment [2], less than 1%; in [3] it was less than 1%; in the experiment with Escherichia coli [4] it was 32%; in experiment [5], 89%; in experiment [6] it was less than 1%. The Activity was 8% in experiment [7] and less than 1% in [8].
